Key:
B16F10 cells = details: cited from earlier work
[1] = test system: AMP-activated protein kinase (AMPK); experiment: AMPK expression in differentiated C2C12 cells; format: cell-based; details: C2C12, positive control 90 μg/mL
Description: In order to confirm the effect of 5-PF-Q on the expression of AMP-activated protein kinase (AMPK), differentiated muscle cell C2C12 cells were treated with 5-PF-Q at 10 μg/mL, 50 μg/mL, and 100 μg/mL for 24 hours, respectively, as shown in FIG. 7 (10% gel, 20 μg PTN, 1° ab pAMPK 1:3,000, tAMPK 1:1,000/2° ab 1:4,000).

Ob/Ob mice = experiment: antidiabetic effect in Ob/Ob mice; format: in vivo
Description: In order to confirm the antidiabetic effect of 5-PF-Q, the changes, due to the administration of 5-PF-Q, in body weight, food intake, reduction of blood sugar levels, toxicity, and insulin resistance were measured.
The mice were divided into group A (weight 35 g or more) and group B (weight 35 g or less) based on body weight. According to the flowchart below, each group was assigned to a metformin (200 mg/kg) administration group (positive control group) and a 5-PF-Q (15 mg/kg) administration group (experimental group) and administered orally for 3 weeks. After the 3-week administration period, blood sugar levels were measured by performing an oral glucose tolerance test (OGTT), and the mice were sacrificed 3 weeks thereafter. OGTT was also performed at the same time point for the Ob/Ob vehicle group (negative control group) that was not administered with the compound, and non-diabetic C57BL/6 mice, and they were sacrificed.

SMILES | cytotoxicity (B16F10 cells) | inhibition of melanin production IC50 (B16F10 cells) | expression of AMPK (pAMPK/tAMPK) [1] | insulin resistance compared to Ob/Ob vehicle group (Ob/Ob mice; Ob/Ob mice, 200 mg/kg) | OGTT blood sugar reduction pattern (Ob/Ob mice; group A (35 g or more), 200 mg/kg oral for 3 weeks)
CCCCCc1ccc(C=O)o1 [5-pentyl-2-furaldehyde] | without cytotoxicity | 8.4 µg/mL |  |  | 
CN(C)C(=N)N=C(N)N [metformin] |  |  | clearly observed | tendency to improve insulin resistance | blood sugar reduction pattern was similar

— US20250289795A1, “METHOD FOR PREPARATION OF COMPOUND POSSESSING 5-PENTYLFURFURAL (5-PF) STRUCTURE AND USE THEREOF” (FUGENBIO CO., LTD., priority 2022, published 2025)
